Results published in ChEMBL document CHEMBL1125091, “Antiulcer agents. 4-substituted 2-guanidinothiazoles: reversible, competitive, and selective inhibitors of gastric H+,K(+)-ATPase” (J Med Chem, 1990).
“And” between values parts separate entries of the source, which are not always exact repeats. Equal values may be shown once.

Tests used:
[1] = test system: Potassium-transporting ATPase (Canis familiaris); test: Percent inhibition of gastric proton-pump enzyme H+/K+ ATPase was determined at 50 uM; settings: Canis lupus familiaris, Stomach
[2] = molecular target: Potassium-transporting ATPase (Canis familiaris); test: Inhibitory activity against dog gastric proton-pump enzyme H+/K+ ATPase

SMILES | inhibition [1] [%] | IC50 [2]
N=C(N)Nc1nc(-c2ccccc2)cs1 | 52 | 
Cc1ccccc1-c1csc(NC(=N)NCc2ccccc2)n1 | 111 | 10 µM
CCCCCC/N=C(\N)Nc1nc(-c2c[nH]c(C)c2)cs1 | 93 | 7 µM
Cc1cccc2[nH]cc(-c3csc(NC(=N)NCc4ccccc4)n3)c12 | 103 | 
Cc1cc(-c2nc(NC(=N)NCCc3ccccc3)sc2C)c[nH]1 | 87 | 9.1 µM
COc1ccc(-c2csc(N=C(N)N)n2)cc1OC | 41 | 
N=C(NCc1ccccc1)Nc1nc(-c2cccc(Cl)c2)cs1 | 80 | 
CN(C)Cc1cc(-c2csc(N=C(N)N)n2)c[nH]1 | 94 | 9 µM
Cc1[nH]c(-c2csc(N=C(N)N)n2)cc1C(=O)N(C)C | 33 | 
N=C(N)Nc1nc(-c2ccccc2O)cs1 | 26 | 
Cc1cc(-c2csc(N)n2)c[nH]1 | 17 | 
Cc1ccc(-c2csc(N=C(N)N)n2)n1S(=O)(=O)c1ccccc1 | 91 | 7 µM
COc1cccc(-c2csc(NC(=N)NCc3ccccc3)n2)c1 | 85 | 10 µM
N=C(N)NCCc1c[nH]c2ccccc12 | 15 | 
Cc1sc(N=C(N)N)nc1-c1c[nH]c(C=O)c1 | 77 | 28 µM
N=C(N)Nc1nc(-c2c[nH]c(C(=O)N3CCCCC3)c2)cs1 | 69 | 17 µM
COC(=O)c1ccc2[nH]cc(-c3csc(NC(=N)NCc4ccccc4)n3)c2c1 | 94 | 3.1 µM
Cc1cc(-c2csc(NC(=N)NCc3ccccc3)n2)cn1S(=O)(=O)c1ccccc1 | 69 | 
Cc1ccccc1-c1csc(N=C(N)N)n1 | 78 | 20 µM
Cc1cc(-c2csc(NC3=NCCN3C)n2)c[nH]1 | 13 | 
N=C(NCc1ccccc1)Nc1nc(-c2ccccc2Cl)cs1 | 99 | 6 µM
Cc1ccc2[nH]cc(-c3csc(NC(=N)NCc4ccccc4)n3)c2c1 | 104 | 0.94 µM

SMILES | inhibition [1] [%] | IC50 [2]
N=C(N)Nc1nc(-c2cccc(O)c2)cs1 | 69 | 23 µM
N=C(NCc1ccccc1)Nc1nc(-c2c[nH]c3ccc(F)cc23)cs1 | 96 | 2.7 µM
Cc1cccc(-c2csc(N=C(N)N)n2)c1 | 60 | 32 µM
N=C(N)Nc1nc(-c2ccc(-c3ccccc3)cc2)cs1 | 25 | 
Cc1nc(-c2c[nH]c(C=O)c2)cs1 | 5 | 
CCOC(=O)c1cc(-c2csc(N=C(N)N)n2)[nH]c1C | 91 | 7 µM
COc1ccccc1-c1csc(NC(=N)NCc2ccccc2)n1 | 99 | 2.3 µM
Cc1sc(N=C(N)N)nc1-c1ccn(S(=O)(=O)c2ccccc2)c1C | 100 | 4.2 µM
Cc1[nH]ccc1-c1csc(N=C(N)N)n1 | 96 | 7 µM
N=C(NCc1ccccc1)Nc1nc(-c2ccccc2)cs1 | -1 | 
N/C(=N\Cc1ccccc1)Nc1nc(-c2ccc(N)cc2)cs1 | 77 | 5.2 µM
NC(N)=Nc1nc(-c2ccccc2)cs1 |  | 40 µM
Cc1ccc(C/N=C(\N)Nc2nc(-c3c[nH]c(C)c3)c(C)s2)cc1 | 95 | 2.9 µM
N=C(NCc1ccccc1)Nc1nc(-c2ccc(-c3ccccc3)cc2)cs1 | 5 | 
Cc1c(-c2csc(N=C(N)N)n2)ccn1S(=O)(=O)c1ccccc1 | 101 | 2 µM
COC(=O)c1ccc2[nH]cc(-c3csc(N=C(N)N)n3)c2c1 | 86 | 6.7 µM
N=C(N)Nc1ccc(-c2ccccc2)cc1 | 16 | 
Cc1cc(-c2csc(NC3=NCCN3)n2)c[nH]1 | 25 | 
N=C(N)Nc1nc(-c2ccccc2)co1 | 0 | 
N=C(N)Nc1nc(-c2ccc(O)cc2)cs1 | 75 | 15 µM
N=C(N)Nc1nc(-c2cc[nH]c2)cs1 | 68 | 
Cc1sc(N=C(N)N)nc1-c1ccc(O)c(O)c1 | 97 | 1.6 µM

SMILES | inhibition [1] [%] | IC50 [2]
N=C(N)Nc1nc(-c2c[nH]c3ccc(F)cc23)cs1 | 90 | 7.4 µM
Cc1cc(-c2nc(NC(=N)Nc3ccccc3)sc2C)c[nH]1 | 83 | 9.8 µM
Cc1sc(N=C(N)NCc2ccccc2)nc1-c1c[nH]c2ccc(Cl)cc12 |  | 0.7 µM
Cc1cc(-c2csc(NC3=NCCCN3Cc3ccccc3)n2)c[nH]1 | 19 | 
Cc1[nH]c2ccccc2c1-c1csc(N=C(N)N)n1 | 85 | 9 µM
Cc1ccc(-c2csc(NC(=N)NCc3ccccc3)n2)[nH]1 | 83 | 
N=C(NCc1ccccc1)Nc1nc(-c2ccc(Cl)cc2)cs1 | 38 | 
N=C(N)Nc1nc(-c2cccc(Cl)c2)cs1 | 48 | 53 µM
N=C(N)Nc1nc(-c2ccccc2Cl)cs1 | 71 | 18 µM and 9 µM
CCCCC/N=C(\N)Nc1nc(-c2cccc(OC)c2)cs1 | 25 | 
N=C(NCc1ccccc1)Nc1nc(-c2cc3cc(F)ccc3[nH]2)cs1 | 49 | 
N/C(=N\Cc1ccccc1)Nc1nc(-c2ccccc2O)cs1 | 85 | 11 µM
Cc1cccc2c(-c3csc(NC(=N)NCc4ccccc4)n3)c[nH]c12 | 92 | 1 µM
N=C(NCc1ccccc1)Nc1nc(-c2c[nH]c3ccc(Cl)cc23)cs1 | 92 | 0.7 µM
Cc1cc(-c2csc(N=C(N)N)n2)cn1S(=O)(=O)c1ccccc1 | 92 | 2 µM
Cc1sc(N=C(N)N)nc1-c1c[nH]c2ccc(Cl)cc12 | 99 | 0.59 µM
Cc1sc(NC(=N)NCc2ccccc2)nc1-c1ccc(O)c(O)c1 | 103 | 1.3 µM
Cc1cc(-c2csc(NC(=N)N3CCCCC3)n2)c[nH]1 | 34 | 
Cc1sc(NC(=N)NCc2ccccc2)nc1-c1ccn(S(=O)(=O)c2ccccc2)c1C | 35 | 
CN(C)c1ccc(-c2csc(N=C(N)N)n2)cc1 | 75 | 14 µM
N=C(NCc1ccccc1)Nc1nc(-c2ccc[nH]2)cs1 | 81 | 9 µM
COc1ccccc1-c1csc(N=C(N)N)n1 | 70 | 27 µM

SMILES | inhibition [1] [%] | IC50 [2]
N=C(NCc1ccccc1)Nc1nc(-c2c[nH]c3ccc(OCc4ccccc4)cc23)cs1 | 90 | 1.8 µM
N=C(N)Nc1nc(-c2cc3ccccc3[nH]2)cs1 | 72 | 14 µM
Cc1ccc(-c2csc(N=C(N)N)n2)n1C | 20 | 
N=C(N)Nc1nc(-c2ccc(N)cc2)cs1 | 63 | 32 µM
CC(=O)Nc1ccc2[nH]cc(-c3csc(NC(=N)NCc4ccccc4)n3)c2c1 | 66 | 23.8 µM
N/C(=N\Cc1ccccc1)Nc1nc(-c2cccc(O)c2)cs1 | 8 | 
N#Cc1ccc2[nH]cc(-c3csc(NC(=N)N)n3)c2c1 | 80 | 
Cc1[nH]c2ccccc2c1-c1csc(NC(=N)NCc2ccccc2)n1 | 102 | 1.7 µM
Cc1cc(-c2csc(NC(=N)NCc3ccccc3)n2)c[nH]1 | 97 | 11 µM
Cc1sc(N=C(N)N)nc1-c1c[nH]c2ccccc12 | 92 | 7.6 µM
N=C(NCc1ccccc1)Nc1nc(-c2cc3cc(Cl)ccc3[nH]2)cs1 | 97 | 9.1 µM
CCCCCCN(C)C(=N)Nc1nc(-c2c[nH]c(C)c2)cs1 | 54 | 
Cc1cc(-c2nc(NC(=N)NCc3ccccc3)sc2C)c[nH]1 | 83 | 7.9 µM
Cn1cc(-c2csc(N=C(N)N)n2)cc1C=O | 44 | 
Nc1nc(-c2c[nH]c(C=O)c2)cs1 | 9 | 
Cc1cc(-c2csc(N=C(N)N)n2)cn1C | 74 | 24 µM
Cc1ccc(-c2csc(N=C(N)NCc3ccccc3)n2)[nH]1 |  | 7 µM
N=C(N)Nc1nc(-c2ccc(Cl)cc2)cs1 | 48 | 
COc1ccc(-c2csc(NC(=N)NCc3ccccc3)n2)cc1 | 24 | 
N=C(N)Nc1nc(-c2c[nH]c(C=O)c2)cs1 | 44 | 
Cc1[nH]c(-c2csc(N=C(N)N)n2)cc1CN(C)C | 87 | 11 µM
N/C(=N\Cc1ccccc1)Nc1nc(-c2ccc(O)cc2)cs1 | 49 | 

SMILES | inhibition [1] [%] | IC50 [2]
N=C(N)Nc1nc(-c2ccc(F)cc2)cs1 | 61 | 33 µM
Cc1ccc(-c2csc(NC(=N)NCc3ccccc3)n2)cc1 | 16 | 
N=C(N)Nc1nc(-c2c[nH]c3ccc(OCc4ccccc4)cc23)cs1 | 78 | 1.2 µM
Cc1ccc2[nH]cc(-c3csc(N=C(N)N)n3)c2c1 | 76 | 1.8 µM
CN(C)Cc1ccccc1-c1csc(N=C(N)N)n1 | 27 | 
N#Cc1ccc2[nH]cc(-c3csc(NC(=N)NCc4ccccc4)n3)c2c1 | 50 | 
Cc1cccc(-c2csc(NC(=N)NCc3ccccc3)n2)c1 | 53 | 
Cc1ccc(-c2csc(N=C(N)N)n2)cc1 | 61 | 
Cc1sc(NC(=N)NCc2ccccc2)nc1-c1c[nH]c2ccccc12 | 34 | 
CCCCCC/N=C(\NC)Nc1nc(-c2c[nH]c(C)c2)cs1 | 68 | 
Cc1cc(-c2csc(C)n2)c[nH]1 | 0 | 
CN(C)c1cccc(-c2csc(NC(=N)N)n2)c1 | 52 | 
Cc1c(-c2csc(NC(=N)NCc3ccccc3)n2)ccn1S(=O)(=O)c1ccccc1 | 54 | 
N=C(NCc1ccccc1)Nc1nc(-c2ccc(F)cc2)cs1 | 35 | 
N=C(N)Nc1nc(-c2c[nH]c(CN3CCCCC3)c2)cs1 | 55 | 
COc1ccc(-c2csc(NC(=N)NCc3ccccc3)n2)cc1OC | 25 | 
Cc1cccc2[nH]cc(-c3csc(N=C(N)NCc4ccccc4)n3)c12 |  | 3.3 µM
N=C(N)Nc1cc(Cl)nc(-c2ccccc2)n1 | 89 | 
N=C(N)Nc1nc(-c2cccc(N)c2)cs1 | 45 | 
NC(N)=Nc1cc(Cl)nc(-c2ccccc2)n1 |  | 6 µM
